Key:
[1] = biological target: Serine/threonine-protein kinase PknB (Mycobacterium tuberculosis) (UniProt P9WI81); test: Inhibition of wild-type Mycobacterium tuberculosis partial length PKNB (M1 to G279 residues) expressed in mammalian expression system assessed as residual activity at 50 nM by Kinomescan method relative to control
[2] = biological target: Serine/threonine-protein kinase SBK1 (Homo sapiens) (UniProt Q52WX2); test: Inhibition of wild-type human partial length SBK1 (P23 to P348 residues) expressed in mammalian expression system assessed as residual activity at 50 nM by Kinomescan method relative to control
[3] = biological target: Misshapen-like kinase 1 (Homo sapiens) (UniProt Q8N4C8); test: Inhibition of wild-type human partial length MINK (M1 to K312 residues) expressed in mammalian expression system assessed as residual activity at 50 nM by Kinomescan method relative to control
[4] = biological target: MAP kinase-interacting serine/threonine-protein kinase 1 (Homo sapiens) (UniProt Q9BUB5); test: Inhibition of wild-type human full length MNK1 (M1 to L424 residues) expressed in mammalian expression system assessed as residual activity at 50 nM by Kinomescan method relative to control
[5] = biological target: Calcium/calmodulin-dependent protein kinase kinase 2 (Homo sapiens) (UniProt Q96RR4); test: Inhibition of wild-type human partial length CAMKK2 (D65 to V471 residues) expressed in bacterial expression system assessed as residual activity at 50 nM by Kinomescan method relative to control
[6] = biological target: Serine/threonine-protein kinase PLK1 (Homo sapiens) (UniProt P53350); test: Inhibition of wild-type human partial length PLK1 (A33 to F325 residues) expressed in mammalian expression system assessed as residual activity at 50 nM by Kinomescan method relative to control
[7] = biological target: Serine/threonine-protein kinase PAK 1 (Homo sapiens) (UniProt Q13153); test: Inhibition of wild-type human partial length PAK1 (S149 to H545 residues) expressed in bacterial expression system assessed as residual activity at 50 nM by Kinomescan method relative to control
[8] = biological target: Activin receptor type-1B (Homo sapiens) (UniProt P36896); test: Inhibition of wild-type human ALK4 (S187 to I505 residues) expressed in bacterial expression system assessed as residual activity at 50 nM by Kinomescan method relative to control
[9] = biological target: Serine/threonine-protein kinase TAO1 (Homo sapiens) (UniProt Q7L7X3); test: Inhibition of wild-type human partial length TAO1 (M1 to A320 residues) expressed in mammalian expression system assessed as residual activity at 50 nM by Kinomescan method relative to control
[10] = biological target: Inhibitor of nuclear factor kappa-B kinase subunit epsilon (Homo sapiens) (UniProt Q14164); test: Inhibition of wild-type human full length IKK-epsilon (M1 to V716 residues) expressed in mammalian expression system assessed as residual activity at 50 nM by Kinomescan method relative to control
[11] = biological target: Serine/threonine-protein kinase LATS2 (Homo sapiens) (UniProt Q9NRM7); test: Inhibition of wild-type human partial length LATS2 (Q641 to V1088 residues) expressed in mammalian expression system assessed as residual activity at 50 nM by Kinomescan method relative to control
[12] = biological target: cAMP-dependent protein kinase catalytic subunit alpha (Homo sapiens) (UniProt P17612); test: Inhibition of wild-type human partial length PKACA (G10 to F351 residues) expressed in bacterial expression system assessed as residual activity at 50 nM by Kinomescan method relative to control
[13] = biological target: Serine/threonine-protein kinase Chk2 (Homo sapiens) (UniProt O96017); test: Inhibition of wild-type human partial length CHK2 (S253 to E574 residues) expressed in bacterial expression system assessed as residual activity at 50 nM by Kinomescan method relative to control
[14] = biological target: Inhibitor of nuclear factor kappa-B kinase subunit alpha (Homo sapiens) (UniProt O15111); test: Inhibition of wild-type human full length IKK-alpha (M1 to E745 residues) expressed in mammalian expression system assessed as residual activity at 50 nM by Kinomescan method relative to control
[15] = biological target: Casein kinase II subunit alpha' (Homo sapiens) (UniProt P19784); test: Inhibition of wild-type human full length CK2A2 (M1 to R350 residues) expressed in mammalian expression system assessed as residual activity at 50 nM by Kinomescan method relative to control
[16] = biological target: Mitogen-activated protein kinase kinase kinase 7 (Homo sapiens) (UniProt O43318); test: Inhibition of wild-type human partial length TAK1 (M1 to Q303 residues) expressed in mammalian expression system assessed as residual activity at 50 nM by Kinomescan method relative to control
[17] = biological target: TGF-beta receptor type-1 (Homo sapiens) (UniProt P36897); test: Inhibition of wild-type human partial length TGFBR1 (D179 to M503 residues) expressed in bacterial expression system assessed as residual activity at 50 nM by Kinomescan method relative to control
[18] = biological target: Cyclin-dependent kinase 7 (Homo sapiens) (UniProt P50613); test: Inhibition of wild-type human full length CDK7 (M1 to L344 residues) expressed in mammalian expression system assessed as residual activity at 50 nM by Kinomescan method relative to control
[19] = biological target: Rhodopsin kinase GRK1 (Homo sapiens) (UniProt Q15835); test: Inhibition of wild-type human full length RHOK (M1 to S563 residues) expressed in mammalian expression system assessed as residual activity at 50 nM by Kinomescan method relative to control
[20] = biological target: Serine/threonine-protein kinase SIK2 (Homo sapiens) (UniProt Q9H0K1); test: Inhibition of wild-type human full length QIK (M1 to N926 residues) expressed in bacterial expression system assessed as residual activity at 50 nM by Kinomescan method relative to control
[21] = biological target: Serine/threonine-protein kinase ULK2 (Homo sapiens) (UniProt Q8IYT8); test: Inhibition of wild-type human partial length ULK2 (M1 to S301 residues) expressed in mammalian expression system assessed as residual activity at 50 nM by Kinomescan method relative to control
[22] = biological target: Dual specificity protein kinase TTK (Homo sapiens) (UniProt P33981); test: Inhibition of wild-type human partial length TTK (N505 to V798 residues) expressed in bacterial expression system assessed as residual activity at 50 nM by Kinomescan method relative to control
[23] = biological target: Serine/threonine-protein kinase 26 (Homo sapiens) (UniProt Q9P289); test: Inhibition of full lengthhuman MST4 (M1 to P416 residues) expressed in mammalian expression system assessed as residual activity at 50 nM by KINOMEscan assay relative to control
[24] = biological target: Mitogen-activated protein kinase kinase kinase 9 (Homo sapiens) (UniProt P80192); test: Inhibition of wild-type human partial length MLK1 (V88 to W426 residues) expressed in bacterial expression system assessed as residual activity at 50 nM by Kinomescan method relative to control
[25] = biological target: Uncharacterized serine/threonine-protein kinase SBK3 (Homo sapiens) (UniProt P0C264); test: Inhibition of wild-type human partial length SGK110 (L22 to R329 residues) expressed in bacterial expression system assessed as residual activity at 50 nM by Kinomescan method relative to control

In the case of `COc1ccc(-c2cc3c(N[C@@H]4CC[C@](C)(N)C4(C)C)c(C(N)=O)cnn3c2)cn1`, the Activity [1] is reported as 24%, the Activity [2] is reported as 72% and the Activity [3] is reported as 96%. For the same compound, the Activity [4] was 100%, the Activity [5] was 64% and the Activity [6] was 100%. For the same compound, the Activity [7] was 96%, the Activity [8] was 66% and the Activity [9] was 59%. The Activity [10] was 91%, the Activity [11] was 94% and the Activity [12] was 100%. The Activity [13] was 100%, the Activity [14] was 87% and the Activity [15] was 85%. It also gave an Activity [16] of 73%, an Activity [17] of 95% and an Activity [18] of 84%. For the same compound, the Activity [19] was 100%, the Activity [20] was 63% and the Activity [21] was 75%. The Activity [22] was 81%, the Activity [23] was 23% and the Activity [24] was 90%. The Activity [25] was 62%.
For `CC1(C)[C@H](Nc2c(C(N)=O)cnn3cc(-c4ccccc4)cc23)CC[C@]1(C)N`, the Activity [1] was 17%, the Activity [2] was 100% and the Activity [3] was 100%. It also gave an Activity [4] of 54%, an Activity [5] of 83% and an Activity [6] of 94%. The Activity [7] was 88%, the Activity [8] was 82% and the Activity [9] was 54%. It also gave an Activity [10] of 100%, an Activity [11] of 100% and an Activity [12] of 100%. The Activity [13] was 100%, the Activity [14] was 100% and the Activity [15] was 92%. For the same compound, the Activity [16] was 48%, the Activity [17] was 100% and the Activity [18] was 93%. It also gave an Activity [19] of 100%, an Activity [20] of 36% and an Activity [21] of 36%. For the same compound, the Activity [22] was 100%, the Activity [23] was 12% and the Activity [24] was 78%. For the same compound, the Activity [25] was 41%.

Reference: ChEMBL document CHEMBL4052645, “Discovery of potent and efficacious pyrrolopyridazines as dual JAK1/3 inhibitors” (Bioorg Med Chem Lett, 2017)
